Results: ChEMBL document CHEMBL5257048, “Embellicines C-E: Macrocyclic Alkaloids with a Cyclopenta[b]fluorene Ring System from the Fungus Sarocladium sp” (J Nat Prod, 2023)

Assays:
Format in all cases: functional, cell-based
MDA-MB-435 = test: Cytotoxicity against human MDA-MB-435 cells assessed as inhibition of cell growth incubated for 72 hrs by MTT assay; conditions: MDA-MB-435, 72 h
MDA-MB-231 = test: Cytotoxicity against human MDA-MB-231 cells assessed as inhibition of cell growth incubated for 72 hrs by MTT assay; conditions: MDA-MB-231, 72 h
OVCAR-3 = test: Cytotoxicity against human OVCAR-3 cells assessed as inhibition of cell growth incubated for 72 hrs by MTT assay; conditions: OVCAR-3, 72 h

Compound	IC50 (MDA-MB-435)	IC50 (MDA-MB-231)	IC50 (OVCAR-3)
CC1=C[C@]2(C)C(=C(C)[C@@H]3[C@@H]4C[C@H](C)C[C@H](C)[C@H]4[C@H]4Oc5ccc(cc5)C[C@@]5(O)C=C(C(=O)N5)C(=O)[C@H]2[C@@H]43)[C@@H]1C	1.5 µM	0.4 µM	1.6 µM
CC1=C[C@]2(C)C(=C(C)[C@@H]3[C@@H]4C[C@H](C)C[C@H](C)[C@H]4[C@H]4Oc5ccc(cc5)C[C@]5(O)NC(=O)[C@]6(O[C@H]65)C(=O)[C@H]2[C@@H]43)[C@@H]1C	17 µM	4.8 µM	21 µM
CC1=C[C@]2(C)C(=C(C)[C@@H]3[C@@H]4C[C@H](C)C[C@H](C)[C@H]4[C@H]4Oc5ccc(cc5)CC(=O)[C@@H]5O[C@@]5(C(N)=O)C(=O)[C@H]2[C@@H]43)[C@@H]1C	18 µM	3.2 µM	24 µM
CC(=O)O[C@]12Cc3ccc(cc3)O[C@@H]3[C@H]4[C@@H](C[C@H](C)C[C@@H]4C)[C@H]4C(C)=C5[C@H](C)C(C)=C[C@@]5(C)[C@@H](C(=O)[C@@]5(O[C@H]51)C(=O)N2)[C@@H]34	20 µM	4.4 µM	20 µM
CO[C@@H]1/C2=C(\O)[C@H]3[C@H]4[C@H](Oc5ccc(cc5)C[C@]1(O)NC2=O)[C@H]1[C@@H](C[C@H](C)C[C@@H]1C)[C@H]4C(C)=C1[C@H](C)C(C)=C[C@]13C	1.8 µM	0.4 µM	1 µM
